{
  "source": "patent US20230124142A1",
  "about": "“NEW THERAPEUTIC TARGETS WITH AN ANTI-INFLAMMATORY AND ANTI-INTERFERON EFFECT” (UNIVERSITÉ PARIS CITÉ, priority 2020, published 2023)",
  "key": {"[1]": {"system": "PBMCs of patients suffering from juvenile idiopathic arthritis", "assay": "Transcription of TNFα and IL-6 genes in PBMCs of juvenile idiopathic arthritis patients, RT-qPCR", "assay_type": "cell-based, human", "settings": "inhibitor at 1 μM for 16 h, RT-qPCR (FIG. 21)"}, "T lymphocytes": {"system": "T lymphocytes", "assay": "CD69 expression and viability of T lymphocytes activated with CD3/CD28 beads, flow cytometry", "assay_type": "cell-based, human", "settings": "purified T lymphocytes, 3 days (FIG. 19)", "experimental": "(§1) The monocytes, T lymphocytes and B lymphocytes were cultured at 1·10^6/ml. […] The T lymphocytes were stimulated for 3 days with beads from the “Dynabeads human T activator CD3/CD28” kit from Thermo Fisher Scientific, following their instructions. […] The B lymphocytes were stimulated for 24 h with CpG-A t 1 μg/ml. […] The cells were rinsed in PBS then incubated with a viability dye (Zombie Aqua, Biolegend) for 30 min at ambient temperature. After washing, the cells were resuspended in PBS containing 2% SVF and 2 mM EDTA. For the monocytes, an intracellular labelling of TNFα, IL-6 and IL-1β, with the “Inside Stain” kit (Miltenyi Biotec) was used following the manufacturer's protocol. […] Data acquisition was carried out on the Attune N×T flow cytometer from Thermo Fisher. The FlowJo software was used to analyze the data. For the T lymphocytes, the cells were suspended in PBS containing 2% SVF and 2 mM EDTA then labelled with the PE anti-CD69 and APC anti-CD3 antibody from Miltenyi Biotec, used at 1/100°. After incubation for 30 min, the cells were rinsed in PBS containing 2% SVF and 2 mM EDTA. Data acquisition was carried out on the Attune N×T flow cytometer from Thermo Fisher. The FlowJo software was used to analyze the data. […]"}, "human PBMCs": {"system": "human PBMCs", "assay": "Interferons in supernatants of R848-stimulated PBMCs, STING-37 reporter cell line", "assay_type": "cell-based", "design": "dose or concentration left out as unconfirmed", "settings": "inhibitor 1 h before R848, 24 h, STING-37 reporter (FIG. 17A)"}, "[2]": {"system": "HEK293 non-immune cell line", "assay": "Interferon production by cGAMP-activated HEK293 non-immune cells (STING-37), luciferase", "settings": "inhibitor at 1 and 5 μM (FIG. 22C)"}, "[3]": {"system": "peripheral blood mononuclear cells (PBMCs)", "assay": "Interferon production by cGAMP-activated PBMCs, STING-37 reporter cell line", "settings": "inhibitor 1 h before cGAMP 3 μg/ml, 24 h, STING-37 reporter (FIG. 22A, 23A)"}, "[4]": {"system": "monocytes of healthy donors", "assay": "Intracellular TNFα production in monocytes after TLR7/8 (Resiquimod-R848) stimulation, flow cytometry", "assay_type": "cell-based, human", "settings": "inhibitor 1 h before R848 (TLR7/8), 16 h, flow cytometry (FIG. 1, 2)", "experimental": "(§2) The cells were rinsed in PBS then incubated with a viability dye (Zombie Aqua, Biolegend) for 30 min at ambient temperature. After washing, the cells were resuspended in PBS containing 2% SVF and 2 mM EDTA then labelled with the APC Vio770 anti-CD14 (clone REA599) antibody from Miltenyi Biotec, used at 1/100°. […] Data acquisition was carried out on the Canto 11 flow cytometer using the Diva software (BD Biosciences, San Jose, Calif.). The Kaluza software was used to analyze the data."}, "[5]": {"system": "immune cells (PBMCs and purified monocytes) of healthy donors", "assay": "Production of inflammatory cytokines by PBMCs and purified monocytes after TLR2/4 stimulation by bacterial agents", "assay_type": "cell-based, human", "settings": "TLR 2/4 stimulation by lipoteichoic acid/LPS"}, "[6]": {"system": "monocytes of healthy donors", "assay": "TNFα, IL-1β and IL-6 production and viability of R848-activated purified monocytes, flow cytometry", "assay_type": "cell-based, human", "experimental": "as §1"}, "activated immune cells": {"system": "activated immune cells", "assay": "Secretion of inflammatory cytokines and interferons by activated immune cells placed in contact with ROCK inhibitor", "assay_type": "cell-based", "settings": "compared with activated immune cells not placed in contact with the inhibitor"}, "B lymphocytes": {"system": "B lymphocytes", "assay": "CD69 expression and viability of B lymphocytes activated with CpG-A (TLR9 ligand), flow cytometry", "assay_type": "cell-based, human", "settings": "purified B lymphocytes, 24 h (FIG. 20)", "experimental": "as §1"}, "[7]": {"system": "monocytes of healthy donors", "assay": "Intracellular IL1β and TNFα in monocytes after inflammasome activation by uric acid crystals (MSU, gout model), flow cytometry", "assay_type": "cell-based, human", "settings": "activation of the inflammasome by uric acid crystals (mimicking gout)", "experimental": "as §2, with “II” for “11”"}, "[8]": {"system": "peripheral blood mononuclear cells (PBMCs) of healthy donors", "assay": "Secretion of inflammatory cytokines and interferons by PBMCs after TLR7/8 (R848) stimulation, LegendPlex", "settings": "human PBMCs incubated with inhibitor before R848 stimulation"}, "[9]": {"system": "neurones infected by the prions", "assay_type": "cell-based"}, "[10]": {"system": "peripheral blood mononuclear cells (PBMCs)", "assay": "Cell toxicity on PBMCs, ATP quantification with CellTiter Glo", "assay_type": "cell-based, human", "settings": "cGAMP 24 h"}, "[11]": {"system": "THP1-Dual human monocyte cell line", "assay": "Cell toxicity on THP1-Dual, ATP quantification with CellTiter Glo", "assay_type": "cell-based", "settings": "cGAMP 24 h"}, "[12]": {"system": "THP1-Dual human monocyte cell line", "assay": "Interferon response of cGAMP-activated THP1-Dual cells, luciferase", "settings": "inhibitor 1 h before cGAMP 3 μg/ml, 24 h, luciferase (FIG. 22B, 23B)"}, "[13]": {"system": "NF-κB transcription factor", "assay": "NF-κB transcription factor activity, supernatants of R848-stimulated PBMCs on THP1-Dual reporter line", "assay_type": "cell-based", "settings": "human PBMCs, inhibitor 1 h before R848, 24 h, QUANTI-Blue (FIG. 17B)", "experimental": "The monocytes, T lymphocytes and B lymphocytes were cultured at 1·10^6/ml. […] The T lymphocytes were stimulated for 3 days with beads from the “Dynabeads human T activator CD3/CD28” kit from Thermo Fisher Scientific, following their instructions. […] The B lymphocytes were stimulated for 24 h with CpG-A t 1 μg/ml. […] The activity of the NF-κB transcription factor was measured by means of the THP1-Dual reporter cell line from Invivogen. […] The activity of the NF-κB transcription factor was measured with QUANTI-Blue, a detection agent […], following the supplier's recommendations."}},
  "data": [
    {"smiles": "C[C@@H](N)[C@H]1CC[C@H](C(=O)Nc2ccncc2)CC1", "note": "[Y27632]", "values": [
      {"measurement": "transcription of the genes encoding TNFα and IL-6", "setting": "[1]", "value": "inhibits the transcription"},
      {"measurement": "viability of the T lymphocytes", "setting": "T lymphocytes; CD3/CD28 beads", "value": "without affecting the viability"},
      {"measurement": "expression of the CD69 marker at the surface of the T lymphocytes", "setting": "T lymphocytes; inhibitor at 1 and 5 μM, 1 h before CD3/CD28 beads", "value": "inhibits, according to a dosage effect"},
      {"measurement": "production of IFN induced by the stimulation of TLR7/8", "setting": "human PBMCs", "value": "inhibits"},
      {"measurement": "production of interferon induced by the STING ligand", "setting": "[2]", "value": "blocks in a limited manner"},
      {"measurement": "production of interferons (IFN) induced by the cGAMP", "setting": "[3]", "value": "blocks the production of interferons (IFN) induced by the cGAMP according to a dosage effect starting from 1 μM"},
      {"measurement": "intracellular production of inflammatory cytokines (TNFα)", "setting": "[4]", "value": "inhibits, according to a dosage effect"},
      {"measurement": "production of inflammatory cytokines", "setting": "[5]", "value": "capable of inhibiting the production of inflammatory cytokines"},
      {"measurement": "production of TNFα, IL-1β and IL-6 induced by R848", "setting": "[6]; inhibitor 1 h before R848 1 μg/ml, 6 h, flow cytometry (FIG. 18)", "value": "inhibits, according to a dosage effect"},
      {"measurement": "viability of the monocytes", "setting": "[6]; inhibitor 1 h before R848, 6 h (FIG. 18)", "value": "without affecting the viability"},
      {"measurement": "secretion of the inflammatory cytokines (TNFα, IL-1β, IL6, MCP1 (CCL2)) and of the interferons (IFN)", "setting": "activated immune cells", "value": "inhibits the secretion"},
      {"measurement": "viability of the B lymphocytes", "setting": "B lymphocytes; CpG-A", "value": "without affecting the viability"},
      {"measurement": "expression of the CD69 marker at the surface of the B lymphocytes", "setting": "B lymphocytes; inhibitor at 1 μM, 1 h before CpG-A 1 μg/ml", "value": "inhibits, according to a dosage effect"},
      {"measurement": "production of inflammatory cytokines", "setting": "[7]", "value": "capable of inhibiting the production of inflammatory cytokines"},
      {"measurement": "production of TNFα and of pro-inflammatory cytokines such as IL-6, IL-1β and the interferons induced by the TLR7/8 stimulation", "setting": "[8]", "value": "inhibits the production"},
      {"measurement": "level of TNFα in the culture medium", "setting": "[9]", "value": "re-establishes a “normal” level"},
      {"measurement": "viability of the PBMCs", "setting": "[10]", "value": "without affecting the viability"},
      {"measurement": "viability of the THP1-Dual", "setting": "[11]", "value": "without affecting the viability"},
      {"measurement": "production of interferons (IFN) induced by the cGAMP", "setting": "[12]", "value": "blocks the production of interferons (IFN) induced by the cGAMP according to a dosage effect starting from 1 μM"},
      {"measurement": "activation of the transcription factor of the NF-κB pathway induced by the stimulation of TLR7/8", "setting": "[13]", "value": "inhibits"}
    ]}
  ]
}
